# Measured values: PubChem BioAssay AID1996
# Conditions: buffer; pH 7.4; 200.0 µM
row,SMILES,solubility kinetic [µg/mL]
1,C=CCNc1ccc(N2C(=O)CCCC2=O)cc1[N+](=O)[O-],> 43.4
2,Cn1cc(CCC(=O)NCc2cccc(Cl)c2)c2ccccc21,9.9
3,O=C(CCc1ccccc1)NC(=S)Nc1ccc2c(c1)C(=O)OC2,< 0.4
4,O=C(O)Cc1ccc(-n2cccc2)cc1,> 30.2
5,NC(=O)c1c(NC(=O)c2ccncc2)sc2c1CCCCCC2,7
6,CCNCCNc1ccc([N+](=O)[O-])c2cccnc12,36.4
7,Cc1ccc(N2C(=O)CCC2(C(N)=O)c2ccccc2)cc1 (centres undefined),> 44.2
8,N/C(=N\OC(=O)c1cccs1)C1(c2ccc(Cl)cc2Cl)CC1,12.3
9,Clc1ccc(-c2csc(-c3ccno3)n2)cc1,< 0.3
10,COc1ccc(C(C)=O)cc1CN1CC=C(c2ccccc2)CC1,28.8
11,COc1ccccc1NC(=O)COC(=O)c1cc(C)n(C2CC2)c1C,3.4
12,Nc1ncnc2nc[nH]c12,> 20.3
13,O=C(CNC(=O)C1CCCCC1)Nc1ccc(F)c(Cl)c1,8.2
14,C=CCNC(=O)COC(=O)c1c2c(nc3ccccc13)CCC2,40.9
15,CCCc1nnc(NC(=O)C2CC(=O)N(CCc3ccc(F)cc3)C2)s1 (centres undefined),> 56.5
16,CC1CC1C(=O)OCC(=O)NC(=O)NC12CC3CC(CC(C3)C1)C2 (centres undefined),22.5
17,NC1CCN(c2c(F)cc3c(=O)c(C(=O)O)cn(C4CC4)c3c2Cl)C1 (centres undefined),> 54.9
18,CC(C)[C@H](NC(=O)c1cccc(S(=O)(=O)N2CCOCC2)c1)C(=O)NCc1ccc(F)cc1,8
19,O=C(CCl)Nc1sccc1C(=O)c1ccccc1,3.6
20,COc1ccccc1CN(C)C(=O)COC(=O)c1cc(C)oc1C,> 49.7
21,CC1CCCN(C(=O)c2ccc(-c3ccccc3Cl)o2)C1 (centres undefined),10
22,CC1Oc2ccccc2N(CC(=O)NC2CCCCC2)C1=O (centres undefined),> 45.4

row,SMILES,solubility kinetic [µg/mL]
1,COc1ccc(NC(=S)NCc2cccs2)cc1OC,19.6
2,CCOc1ncccc1C(=O)Nc1cc(S(=O)(=O)N2CCOCC2)ccc1OCC(F)(F)F,0.5
3,COc1cc(Cl)cc(/C=C/c2ccc3cccc(O)c3n2)c1OC,< 0.7
4,COc1ccc2[nH]cc(CCNC(=O)CCC3CCCCC3)c2c1,29.9
5,Nc1ncccc1C(=O)OCC(=O)NC1CCCCCC1,38
6,COc1ccc(C2NC(=O)CCC2[N+](=O)[O-])c(OC)c1OC (centres undefined),> 46.5
7,O=S(=O)(NCCN1CCCC1)c1ccc(Cl)cc1,40.8
8,CCOC(=O)c1ccc(NC(=S)NCCCn2ccnc2)cc1,> 49.9
9,CC(C)N1CCN(C2CSCCSC2)CC1CCO (centres undefined),42.7
10,Cc1ccc(NC(=O)Cc2cccs2)cc1Cl,6.1
11,CCn1c(/N=C/c2ccc(OC)cc2O)nc2ccccc21,15.6
12,C[C@@H](C(=O)Nc1nccs1)N1C(=O)C2CC=CCC2C1=O (some centres undefined),42.8
13,Nc1nnc(SCC(=O)NC2CCCC2)s1,> 38.8
14,O=C(Nc1ccc(Cn2ccnc2)cc1)c1cccc(C(F)(F)F)c1,1.6
15,COC(=O)c1ccc(CN2CCc3ccccc32)cc1,1
16,COc1ccc2c(c1)C(=O)N(Cc1ccccc1)C(=O)C2(C)C,10.5
17,CCOc1ccc(C(=O)NC2CC(C)(C)NC(C)(C)C2)cc1.Cl,> 51.1
18,CCN(CC)CCCNCC(=O)Nc1ccc2c(c1)CCC2,24.3
19,CCCCN(C)C1CCN(C(=S)Nc2cccc(OC)c2)CC1,> 50.3
20,Cc1ccc(C(C)C)cc1S(=O)(=O)NC1CC(C)(C)NC(C)(C)C1,35.2
21,Cc1csc(NC(=O)c2cc(=O)[nH]c3ccccc23)n1,10.5
22,CC(=O)Oc1ccc2occ(/C=N/c3cc(=O)[nH]c(=S)[nH]3)c(=O)c2c1,> 53.6

row,SMILES,solubility kinetic [µg/mL]
1,O=C(O)c1ccc(N2C(=O)CSC2c2cccc([N+](=O)[O-])c2)cc1 (centres undefined),> 51.7
2,Cc1noc2ncnc(N3CCCCC3)c12,27.8
3,COc1ccc(NC(=S)N(CCO)Cc2ccccc2)cc1,44.7
4,COc1ccc(OCC(=O)c2c[nH]c3ccccc23)cc1,< 0.6
5,CC(=O)C(C)n1cnc2scc(-c3ccc(C)cc3)c2c1=O (centres undefined),44.6
6,O=C(Cc1ccc(Br)cc1)NCCc1ccccc1,7.5
7,O=C(O)CSCc1nc2ccccc2[nH]1,31.7
8,CC(=O)Nc1sc(C)c(C)c1C(=O)OCC(=O)Nc1cccc(C)c1,1.1
9,Cn1cnnc1SCC(=O)NC1CCCc2ccccc21 (centres undefined),> 45.4
10,O=C(Cc1ccccc1F)N1CCN(CC(=O)N2CCCC2)CC1,> 50
11,Cc1ccc(C(=O)NCCNC(=O)COc2ccc(Cl)cc2)cn1,> 52.2
12,CC(NC(=O)c1ccco1)C(=O)Nc1nccs1 (centres undefined),> 39.8
13,COC(=O)c1ccsc1-n1cc(C#N)c(=O)n(C)c1=O,> 43.7
14,O=S(=O)(c1ccc(Cl)nc1)N1CCC(Cc2ccccc2)CC1,2.5
15,Cc1ccc(Cn2c(N)nc3ccccc32)cc1,23.8
16,COc1ccc(C)cc1NC(=S)NC12CN3CN(CN(C3)C1)C2,> 50
17,Cc1cccc(CC(=O)c2c[nH]c3ccccc23)c1,0.9
18,CN(C)C(=O)CN1C(=O)c2cccc3cccc1c23,33.1
19,CCC(C(=O)OCC(=O)NC(=O)NC(C)(C)C)c1ccccc1 (centres undefined),2
20,CC(=O)NCCc1nc2cc(NC(=O)c3cccc([N+](=O)[O-])c3)ccc2n1C,3.5
21,CC(C(=O)NCC1CCCCC1)N1CCc2ccccc2C1 (centres undefined),41.9

# Results, then the compound that gave them:
row,solubility kinetic [µg/mL],SMILES
1,16.5,N#CC1=C(N)OC2=C(C(=O)CCC2)C1c1ccc2c(c1)OCO2 (centres undefined)
2,17.8,C=C(C)C1CC=C(CN2CCN(Cc3ccccc3)CC2)CC1 (centres undefined)
3,< 0.3,NC(=NC(=O)c1ccc(OC(F)(F)F)cc1)c1ccc(C(F)(F)F)cn1
4,1.1,O=C(COc1ccccc1F)NCc1ccc(-n2cccc2)cc1
5,33.5,O=C(Nc1ccncc1)Nc1ccccc1Cl
6,31.6,CN1C(=O)C2(OCCCO2)c2ccccc21
7,31.9,NC(=O)[C@@H]1CCCN1Cc1nc(-c2ccccc2)no1
8,< 0.2,N#C/C(=C\c1ccc[nH]1)C(=O)Nc1ccccc1Cl
9,36.5,CC(C)(C)c1ccc(C(=O)NC2CCN(Cc3ccccc3)CC2)cc1
10,40,CCC(=O)Nc1ccc(CCC(=O)N2CCCC2)cc1
11,> 46.9,CCOCCCNC(=O)CN1C(=O)c2cccc3cccc1c23
12,> 39.3,Cc1cccc(NC(=O)C(=O)NCC2CCCO2)c1 (centres undefined)
13,41,CCN(CC)CCNS(=O)(=O)c1ccc(/C=C/C(=O)O)cc1
14,48.3,COc1ccccc1CC(=O)N1CCN(C(=O)c2ccco2)CC1
15,> 41.8,COc1ccccc1CNC(=S)NC1CCCCC1
16,25.8,CC(C)c1ccccc1OCCCCCN1CCOCC1
17,13,COc1ccc(N2C(=O)Cc3c2nc(N)c(C#N)c3N)cc1
18,6.9,O=C1C(Cl)=C(NCc2cccnc2)C(=O)c2ccccc21
19,3.1,O=C(Nc1ccccc1)N1CCN(C(=O)Nc2ccccc2)CC1
20,> 48.1,Cc1csc(SCC(=O)Nc2ccc3[nH]c(=O)[nH]c3c2)n1
21,25.7,O=C(CCCOc1ccccc1)Nc1ccc(Cl)c(S(=O)(=O)N2CCOCC2)c1
22,1.5,O=C(Nc1cccc2cccnc12)c1cccc(Cl)c1
23,42.9,Cn1c(-c2ccccc2[N+](=O)[O-])[n+](C)c2ccccc21.[Cl-]
24,> 53.7,O=C(COc1ccc(Br)cc1)OCC(=O)N1CCOCC1
25,> 45.7,Cc1nc(C)c(C(=O)OCC(=O)N(C)c2ccccc2)s1
26,30.7,COc1ccc(CCC(=O)NCC23CC4CC(CC(C4)C2)C3)cc1
27,> 44,Cc1noc(-c2ccccc2)c1NC(=O)Nc1ccccc1

row,solubility kinetic [µg/mL],SMILES
1,> 46.8,N#Cc1ccc(NC(=O)CN2C(=O)NC3(CCCC3)C2=O)cc1
2,> 34.2,CCS(=O)(=O)Nc1ccccc1C(N)=O
3,> 57.4,COCCn1c(Cc2ccccc2)nnc1SCC(=O)Nc1ccccc1
4,2.9,COc1ccc(OCc2cc(=O)[nH]c3ccccc23)cc1
5,> 39.5,CC(C)NC(=O)NNc1c(Cl)cncc1Cl
6,30.3,COc1cc2c(cc1OC)CN(C(=O)CCOc1ccccc1)CC2
7,> 57.2,CCOc1ccc(C(=O)NCC(=O)N2CCN(Cc3ccccc3)CC2)cc1
8,47.3,O=C1CCCC2=C1C(c1ccc(O)c(O)c1)Nc1ccc3ccccc3c12 (centres undefined)
9,2.8,CCc1cc(=O)[nH]c(SCc2cccc3ccccc23)n1
10,5,Cc1ccc(S(=O)(=O)NCc2ccc3c(c2)OCO3)cc1C
11,> 48.5,CC(C)c1ccc(NC2CCCN(C(=O)c3cccnc3)C2)cc1 (centres undefined)
12,> 34.2,S=C(NCc1cccnc1)c1ccccc1
13,47.1,COc1ccc(N=CC=C2OC(C)(C)C(C)(C)O2)cc1OC.Cl
14,49.2,CN(C)CCOC(=O)c1ccc2[nH]c3c(c2c1)CSCC3.Cl
15,6.8,O=C(Cn1c(=O)oc2ccccc21)Nc1ccccc1Cl
16,8.7,O=C(COC(=O)/C=C/c1ccc(Cl)cc1)Nc1cccc(S(=O)(=O)NC2=NCCCCC2)c1
17,> 61,Cc1ccc(S(=O)(=O)CCC(=O)OC(C)c2nnc(-c3cccs3)o2)cc1 (centres undefined)
18,< 0.2,Cn1cc(/C=C(\C#N)C(=O)Nc2ccccc2O)c2ccccc21
19,> 52.6,COc1ccc(C(=O)O)cc1S(=O)(=O)N(C)CCc1ccccn1
20,43.8,COc1ccc(NC(=O)CS(=O)(=O)c2ccccc2Cl)cc1
21,> 39.2,CC1(C)CC(=O)C2=C(C1)Nc1ccccc1[S@]2=O
22,> 31.7,O=c1[nH]cccc1-c1nc2ccccc2[nH]1
23,38.8,Cc1cc(C)cc(NC(=O)C2CCN(S(C)(=O)=O)CC2)c1
24,> 45.3,CC1C(=O)Nc2ccccc2N1C(=O)c1ccc(F)cc1F (centres undefined)
25,> 35.3,O=C1CCC(=O)N1OCCOc1ccccc1
26,> 32.4,Cc1cc(C)n(-c2cccc(C(=O)O)c2)n1
27,12.6,CCCCN1CNC(=S)N(CCc2ccc(OCC)c(OCC)c2)C1
